Experiments:
[1] = test system: crystallin protein aggregates from human cataract patients; test: Re-dissolution of crystallin aggregates from patients with different degrees of cataract (ThT fluorescence); conditions: LOCS II grades e.g. C1N2P0
Description: DM: diabetes mellitus. lens opacity classification: C: cortex; N: nucleus; P: the posterior lens capsule.
Human lenses used in this study were obtained from unidentified patients undergoing extracapsular cataract surgery. The material had been classified as non-human discarded material. Preoperative clinical exam was used to classify the cataract as mixed cortical and nuclear using LOCS II four-point grading system. LOCS II four-point grading system is also commonly used in clinical settings. (Chylack LT Jr, Leske MC, McCarthy D, Khu P, Kashiwagi T, Sperduto R. Lens opacities classification system II (LOCS II). Arch Ophthalmol. 1989 July; 107(7):991-7. doi: 10.1001/archopht.1989.01070020053028. PMID: 2751471). We tested the crystallin concentrates of patients with different degrees of cataract one by one. […]

[2] = test system: crystallin aggregation from cataract patients; test: Dissolution of crystallin aggregation in lens lysates from cataract patients; parameters: species or system human
Protocol: 30-50 ml lens lysates after phacoemulsification was collected from cataract patients with different disease progressions. Lanosterol was used as a benchmark medicament (see, Zhao, Ling, et al. “Lanosterol reverses protein aggregation in cataracts.” Nature 523. 7562 (2015): 607-611). […] Moreover, the concentration of the polypeptides provided herein (e.g., RJK001) was as less as 1/100 of the concentration of Lanosterol required to achieve the same dissolving effect.
30-50 ml Phacoemulsification of eye lens was collected from cataract patients with different disease progression. Let Phacoemulsification pass the 3KD protein concentration tube, and centrifuge at 4000 g for 20 minutes. centrifuge at 14000 g for 5 minutes after repeating the previous step to get the concentrate. Concentrate phacoemulsification to 200-300 ul every lens. Add 8 ul phacoemulsification concentrate in the following groups: 1, 8 ul crystalline concentrate; 2, 8 ul 1 mM lanosterol; 3, 8 ul 1 mM short peptide RJK001; 4, 8 ul protein solubilization buffer. Use a 20 ul pipette tip to mix them well, then stand still at RT for 20 min.

γD-crystallin = molecular target: T1, γD-crystallin (Homo sapiens, UniProt P07320); test: γD-crystallin turbidity assay (OD395 nm) at 4° C.; assay type: biochemical; conditions: γD-crystallin 50 mg/ml, RJK001 0-500 uM, 5 min
T1 construct: Wild-type human full-length γD-crystallin gene were inserted into pET14b vectors; made in house; host or cells: E. coli BL21 (DE3)
T1 sequence (P07320 1-174): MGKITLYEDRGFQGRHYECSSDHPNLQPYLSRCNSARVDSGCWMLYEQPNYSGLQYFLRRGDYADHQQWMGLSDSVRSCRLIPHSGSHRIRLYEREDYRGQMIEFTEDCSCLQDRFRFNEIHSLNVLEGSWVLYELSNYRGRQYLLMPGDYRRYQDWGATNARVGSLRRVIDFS
Protocol: The purified γD-crystallin was then dissolved in protein solubilization buffer to a final concentration of 50 mg/ml, Place γD-crystallin at 4° C. for 20 minutes to form a stable biphasic phase, add different concentration of the short peptide RJK001 in Sul γD-crystallin in a volume ratio of 1:1, final concentration of RJK001 from low to high is 0 uM, 20 uM, 50 uM, 100 uM, 150 uM, 200 uM, 250 uM, 300 uM and 500 uM, Use a 10 ul pipette tip to mix them well, then place them at 4° C. for 5 min, absorbance at 395 nm (OD395 nm) was monitored at 4° C. using Nanodrop ONE (Thermo Fisher Scientific, Inc.). […] The turbidity level reflects the degree of phase separation.
For γD-crystallin, γD-crystallin was purified in vitro, then were dissolved in protein solubilization buffer (150 mM NaCl, 50 mM tris-HCl, PH 7.5) to a final concentration of 50 mg/ml, Place γD-crystallin at 4° C. for 20 minutes to induce phase separation.
We followed the Turbidity Assays experiment as previously reported. Briefly, G3BP1 turbidity analysis were at room temperature and γD-crystallin protein was at 4° C. Proteins and Champ-E(RJK001), Champ-K, Champ-D or mutants are mixed at room temperature for 10 minutes prior to turbidity assays. […] Absorbance at 395 nm (OD395 nm) was monitored at room temperature using Nanodrop ONE (Thermo Fisher Scientific, Inc.).

TEPQEESEEEVEEPEERQQTPEVVPDDSGTFYDQTVSNDLE [RJK001, polypeptide with hydrophilic and hydrophobic segment, expressed in E. coli]
depolymerization effect on crystallin concentrates of patients with different degrees of cataract [1]: good depolymerization effects
dissolving crystallin aggregation in lens lysates ([2]; lens lysates after phacoemulsification, RT 20 min): could effectively dissolve the crystallin aggregation from cataract patients
concentration relative to the concentration of Lanosterol required to achieve the same dissolving effect ([2]; lens lysates from cataract patients, Lanosterol as benchmark): 1/100
turbidity of γD-crystallin (OD395 nm) (γD-crystallin): reduced the turbidity of γD-crystallin in a concentration dependent manner
